Measurements taken from ChEMBL document CHEMBL1124978, “Direct C-glycosylation of guanine analogues: the synthesis and antiviral activity of certain 7- and 9-deazaguanine C-nucleosides” (1990).

What was measured:
Assay type in all cases: functional
Settings in all cases: route intraperitoneal
Mus musculus [1] = assay: Tested against Forest virus infection in mice at dose 100 mg/kg administered intraperitoneally; 1/12(8)
Mus musculus [2] = assay: Tested against Forest virus infection in mice at dose 100 mg/kg administered intraperitoneally
Mus musculus [3] = assay: Tested against Forest virus infection in mice at dose 100 mg/kg administered intraperitoneally; 10/12(83)
Mus musculus [4] = assay: Tested against Forest virus infection in mice at dose 100 mg/kg administered intraperitoneally; 0/12(0)
Mus musculus [5] = assay: Tested against Forest virus infection in mice at dose 100 mg/kg administered intraperitoneally; 7/12(58)
Mus musculus [6] = assay: Tested against Forest virus infection in mice at dose 100 mg/kg administered intraperitoneally in experiment 3; 11/12(92)
Mus musculus [7] = assay: Tested against Forest virus infection in mice at dose 100 mg/kg administered intraperitoneally in experiment 2; 11/12(92)
Mus musculus [8] = assay: Tested against Forest virus infection in mice at dose 100 mg/kg administered intraperitoneally in experiment 3
Mus musculus [9] = assay: Tested against Forest virus infection in mice at dose 100 mg/kg administered intraperitoneally in experiment 1; 9/12(75)
Mus musculus [10] = assay: Tested against Forest virus infection in mice at dose 100 mg/kg administered intraperitoneally in experiment 2
Mus musculus [11] = assay: Tested against Forest virus infection in mice at dose 100 mg/kg administered intraperitoneally in experiment 1

NC1=NC(=O)C2NC=C([C@@H]3O[C@H](CO)[C@@H](O)[C@H]3O)C2=N1 (stereo partly specified)
Survivors / total (Mus musculus [1]): 8.33% | Mean survival time (Mus musculus [2]): 7.3 days

CN1C(Cl)=C([C@@H]2O[C@H](CO)[C@@H](O)[C@H]2O)C2=NC(N)=NC(=O)C21 (stereo partly specified)
Mean survival time (Mus musculus [2]): 11 days | Survivors / total (Mus musculus [3]): 10%

CN1C=C([C@@H]2O[C@H](CO)[C@@H](O)[C@H]2O)C2=NC(N)=NC(=O)C21 (stereo partly specified)
Survivors / total (Mus musculus [1]): 8.33% | Mean survival time (Mus musculus [2]): 8.1 days

CC1=C([C@@H]2O[C@H](CO)[C@@H](O)[C@H]2O)C2C(=O)N=C(N)N=C2N1 (stereo partly specified)
Survivors / total (Mus musculus [4]): 0% | Mean survival time (Mus musculus [2]): 7.2 days

CN1C(Br)=C([C@@H]2O[C@H](CO)[C@@H](O)[C@H]2O)C2=NC(N)=NC(=O)C21 (stereo partly specified)
Survivors / total (Mus musculus [5]): 7% | Mean survival time (Mus musculus [2]): 7 days

Nc1nc(=O)c2sc(=O)n([C@@H]3O[C@H](CO)[C@@H](O)[C@H]3O)c2[nH]1 [ISATORIBINE]
Survivors / total (Mus musculus [6]): 91.7% | Survivors / total (Mus musculus [7]): 91.7% | Mean survival time (Mus musculus [8]): 9 days | Survivors / total (Mus musculus [9]): 75% | Mean survival time (Mus musculus [10]): 10 days | Mean survival time (Mus musculus [11]): 8.3 days
